Laboratory results: patent publication US9745328B2, “Flap modulators” (JANSSEN PHARMACEUTICA NV, priority 2013, dated 2017)

Biological target: human FLAP (Homo sapiens (Human), UniProt P20292)
Assay: FLAP binding assay (HTRF format)
Conditions: human FLAP wild type, Table 6 (additional runs)
Outline: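 HTRF ratio read-out; two independent plates, samples in duplicate on each, values averaged across plates.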

Chain of human FLAP (P20292 whole entry): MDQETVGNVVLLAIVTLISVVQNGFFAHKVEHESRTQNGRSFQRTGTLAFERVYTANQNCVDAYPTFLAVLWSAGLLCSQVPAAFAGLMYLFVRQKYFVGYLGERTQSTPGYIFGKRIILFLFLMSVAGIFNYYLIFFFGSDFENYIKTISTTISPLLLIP

Ki [nM] | Compound
8.3 | Nc1cnc(-c2ccc(-c3ccccc3Oc3ncccn3)cc2F)cn1 [Example 526, 5-[3-Fluoro-2′-(pyrimidin-2-yloxy)biphenyl-4-yl]pyrazin-2-amine]
5.5 | Nc1cnc(-c2ccc(-c3ccccc3Oc3nccc(N)n3)cc2F)cn1 [Example 528, 2-{[4′-(5-Aminopyrazin-2-yl)-3′-fluorobiphenyl-2-yl]oxy}pyrimidin-4-amine]
4.5 | Nc1cnc(-c2ccc(-c3ccccc3Oc3ccnc(N)n3)cc2F)cn1 [Example 533, 4-{[4′-(5-Aminopyrazin-2-yl)-3′-fluorobiphenyl-2-yl]oxy}pyrimidin-2-amine]
1.6 | Nc1cnc(-c2ccc(-c3ccccc3Oc3cc(N4CCC4)ncn3)cc2F)cn1 [Example 539, 5-{2′-[(6-Azetidin-1-ylpyrimidin-4-yl)oxy]-3-fluorobiphenyl-4-yl}pyrazin-2-amine]
0.4 | Nc1cnc(-c2ccc(-c3ccc(C(F)(F)F)cc3Oc3ncccn3)cc2F)cn1 [Example 551, 5-[3-Fluoro-2′-(pyrimidin-2-yloxy)-4′-(trifluoromethyl)biphenyl-4-yl]pyrazin-2-amine]
5.5 | Nc1ncc(-c2ccc(-c3ccc(C(F)(F)F)cc3Oc3ncccn3)cc2F)cn1 [Example 552, 5-[3-Fluoro-2′-(pyrimidin-2-yloxy)-4′-(trifluoromethyl)biphenyl-4-yl]pyrimidin-2-amine]
19.3 | COc1cc(C(F)(F)F)ccc1-c1ccc(-c2cnc(N)cn2)c(F)c1 [Example 553, 5-[3-fluoro-2′-methoxy-4′-(trifluoromethyl)biphenyl-4-yl]pyrazin-2-amine]
1.6 | Nc1cnc(-c2ccc(-c3ccc(C(F)(F)F)cc3Oc3ccnc(N)n3)cc2F)cn1 [Example 555, 4-{[4′-(5-Aminopyrazin-2-yl)-3′-fluoro-4-(trifluoromethyl)biphenyl-2-yl]oxy}pyrimidin-2-amine]
0.7 | Nc1cnc(-c2ccc(-c3ccc(C(F)(F)F)cc3Oc3nccc(N)n3)cc2F)cn1 [Example 556, 2-{[4′-(5-Aminopyrazin-2-yl)-3′-fluoro-4-(trifluoromethyl)biphenyl-2-yl]oxy}pyrimidin-4-amine]
1.5 | Nc1ccnc(Oc2cc(C(F)(F)F)ccc2-c2ccc(-c3cnc(N)nc3)c(F)c2)n1 [Example 559, 5-{2′-[(4-Aminopyrimidin-2-yl)oxy]-3-fluoro-4′-(trifluoromethyl)biphenyl-4-yl}pyrimidin-2-amine]
4.4 | Nc1cc(Oc2cc(C(F)(F)F)ccc2-c2ccc(-c3cnc(N)nc3)c(F)c2)ncn1 [Example 561, 5-{2′-[(6-Aminopyrimidin-4-yl)oxy]-3-fluoro-4′-(trifluoromethyl)biphenyl-4-yl}pyrimidin-2-amine]
9.8 | Nc1cnc(Oc2ccccc2-c2ccc(-c3cnc(N)cn3)c(F)c2)nc1 [Example 614, 2-{[4′-(5-Aminopyrazin-2-yl)-3′-fluorobiphenyl-2-yl]oxy}pyrimidin-5-amine]
16.4 | Cc1cc(N)nc(Oc2ccccc2-c2ccc(-c3cnc(N)cn3)c(F)c2)n1 [Example 616, 2-{[4′-(5-Aminopyrazin-2-yl)-3′-fluorobiphenyl-2-yl]oxy}-6-methylpyrimidin-4-amine]
32.7 | Nc1ncc(-c2ccc(-c3ccccc3Oc3cccc(C(F)(F)F)n3)cc2F)cn1 [Example 624, 5-(3-Fluoro-2′-{[6-(trifluoromethyl)pyridin-2-yl]oxy}biphenyl-4-yl)pyrimidin-2-amine]

Further lines, the compound ahead of its results:

Compound | Ki [nM]
Nc1cnc(-c2ccc(-c3ccccc3NS(=O)(=O)c3ccccc3)cc2F)cn1 [Example 479, N-[4′-(5-Aminopyrazin-2-yl)-3′-fluorobiphenyl-2-yl]benzenesulfonamide] | 7.7
Nc1cnc(-c2ccc(-c3ccccc3OCC(=O)O)cc2F)cn1 [Example 481, {[4′-(5-Aminopyrazin-2-yl)-3′-fluorobiphenyl-2-yl]oxy}acetic acid] | 1910
CC(=O)c1ccccc1-c1ccc(-c2cnc(N)cn2)c(F)c1 [Example 483, 1-[4′-(5-Aminopyrazin-2-yl)-3′-fluorobiphenyl-2-yl]ethanone] | ~354
CS(=O)(=O)c1cc(F)ccc1-c1ccc(-c2cnc3[nH]ccc3n2)c(F)c1 [Example 489, 2-[3,4′-Difluoro-2′-(methylsulfonyl)biphenyl-4-yl]-5H-pyrrolo[2,3-b]pyrazine] | 19.6
CC(C)(C)NC(=O)c1ccccc1-c1ccc(-c2cnc(N)cn2)c(F)c1 [Example 501, 4′-(5-Aminopyrazin-2-yl)-N-tert-butyl-3′-fluorobiphenyl-2-carboxamide] | 359
Nc1cnc(-c2ccc(-c3ccc(C(F)(F)F)cc3C(=O)N3CCOCC3)cc2F)cn1 [Example 521, 5-[3-Fluoro-2′-(morpholin-4-ylcarbonyl)-4′-(trifluoromethyl)biphenyl-4-yl]pyrazin-2-amine] | 5.4
Nc1nccc(Oc2ccccc2-c2ccc(-c3cnc4[nH]ccc4c3)c(F)c2)n1 [Example 523, 4-{[3′-Fluoro-4′-(1H-pyrrolo[2,3-b]pyridin-5-yl)biphenyl-2-yl]oxy}pyrimidin-2-amine] | 1.3
Nc1ccnc(Oc2ccccc2-c2ccc(-c3cnc4[nH]ccc4c3)c(F)c2)n1 [Example 524, 2-{[3′-Fluoro-4′-(1H-pyrrolo[2,3-b]pyridin-5-yl)biphenyl-2-yl]oxy}pyrimidin-4-amine] | 0.7
N#Cc1cccnc1COc1ccccc1-c1ccc(-c2cnc(N)cn2)c(F)c1 [Example 531, 2-({[4′-(5-Aminopyrazin-2-yl)-3′-fluorobiphenyl-2-yl]oxy}methyl)pyridine-3-carbonitrile] | 8.5
N#Cc1cc(Oc2ccccc2-c2ccc(-c3cnc(N)nc3)c(F)c2)ccn1 [Example 538, 4-{[4′-(2-Aminopyrimidin-5-yl)-3′-fluorobiphenyl-2-yl]oxy}pyridine-2-carbonitrile] | 20.2
COc1cnc(Oc2ccccc2-c2ccc(-c3cnc(N)nc3)c(F)c2)nc1 [Example 550, 5-{3-Fluoro-2′-[(5-methoxypyrimidin-2-yl)oxy]biphenyl-4-yl}pyrimidin-2-amine] | 1.7
CC(C)(C)NS(=O)(=O)c1ccccc1-c1ccc(-c2cnc(N)cn2)cc1 [Example 571, 4′-(5-Aminopyrazin-2-yl)-N-tert-butylbiphenyl-2-sulfonamide] | 1.7
CC(C)(C)NS(=O)(=O)c1ccccc1-c1ccc(-c2cnc(N)cn2)cc1F [Example 574, 4′-(5-Aminopyrazin-2-yl)-N-tert-butyl-2′-fluorobiphenyl-sultonamide] | 13.9
Nc1nc(-c2ccc(-c3ccccc3S(=O)(=O)N3CCCC3)cc2F)cs1 [Example 579, 4-[3-Fluoro-2′-(pyrrolidin-1-ylsulfonyl)biphenyl-4-yl]-1,3-thiazol-2-amine] | 95.1
CC(C)(C)NS(=O)(=O)c1ccccc1-c1ccc(-c2ccc3[nH]nc(N)c3c2)c(F)c1 [Example 597, 4′-(3-Amino-1H-indazol-5-yl)-N-tert-butyl-3′-fluorobiphenyl-2-sulfonamide] | ~2500
Nc1cnc(Oc2ccccc2-c2ccc(-c3cnc(N)nc3)c(F)c2)nc1 [Example 615, 5-{2′-[(5-Aminopyrimidin-2-yl)oxy]-3-fluorobiphenyl-4-yl}pyrimidin-2-amine] | 50.9
Cc1cc(N)nc(Oc2ccccc2-c2ccc(-c3cnc(N)nc3)c(F)c2)n1 [Example 617, 5-{2′-[(4-Amino-6-methylpyrimidin-2-yl)oxy]-3-fluorobiphenyl-4-yl}pyrimidin-2-amine] | 162

Same assay, conditions: human FLAP wild type, a calculated value of 0.000 indicates Ki less than 1 nM

Ki [nM] | Compound
< 1 | Nc1cnc(-c2ccc(-c3ccc(C(F)(F)F)cc3Oc3ncccn3)cc2F)cn1 [Example 551, 5-[3-Fluoro-2′-(pyrimidin-2-yloxy)-4′-(trifluoromethyl)biphenyl-4-yl]pyrazin-2-amine]
